Measurements: patent US20250032485A1, “APPLICATION OF IMIDAZO [1,2-A] PYRAZINE COMPOUNDS OR THEIR PHARMACEUTICALLY ACCEPTABLE SALTS IN THE PREPARATION OF ANTI-CORONAVIRUS DRUGS” (GUANGZHOU MEDICAL UNIVERSITY, priority 2023, published 2025)

Biological target: PLpro of SARS-CoV-2 (Severe acute respiratory syndrome coronavirus 2, UniProt P0DTD1)
Assay: Enzyme activity test in vitro: inhibition of PLpro at fixed concentration 50 μM (RLRGG-AMC substrate)
Type: biochemical
Settings: read-out: Inhibition rate at 50 μM (%)

Compared with `CCNC(=O)c1ccc(Nc2c(-c3ccc(C)cc3)nc3cnccn23)cc1` [P22412, N-ethyl-4-[[2-(4-methylphenyl)imidazo [1,2-a]pyrazin-3-yl]amino]benzamide], `Cc1ccc(-c2nc3cnccn3c2Nc2ccc(C(=O)NCCN(C)C)cc2)cc1` [P22453, N-[2-(dimethylamino)ethyl]-4-[[2-(4-methylphenyl)imidazo [1,2-a]pyrazin-3-yl]amino]benzamide] is higher in inhibition at 50 µM: 33.5% for the first, 36.6% for the second.

Going from `O=C(NCCN1CCOCC1)c1ccc(Nc2c(-c3ccc(Cl)cc3)nc3cnccn23)cc1` [P22413, 4-[[2-(4-chlorophenyl)imidazo[1,2-a]pyrazin-3-yl]amino]-N-(2-morpholin-4-ylethyl)benzamide] to `O=C(NCCN1CCOCC1)c1cccc(Nc2c(-c3ccc(Cl)cc3)nc3cnccn23)c1` [P22447, 3-[[2-(4-chlorophenyl)imidazo[1,2-a]pyrazin-3-yl]amino]-N-(2-morpholin-4-ylethyl)benzamide], the inhibition at 50 µM rises from 36.1% to 41.9%.

Compared with `CNC(=O)c1cccc(Nc2c(-c3ccccc3)nc3cnccn23)c1` [P22416, N-methyl-3-[(2-phenylimidazo[1,2-a]pyrazin-3-yl)amino] benzamide], `CCNC(=O)c1cccc(Nc2c(-c3ccccc3)nc3cnccn23)c1` [P22446, N-ethyl-3-[(2-phenyl-imidazo[1,2-a]pyrazin-3-yl)amino] benzamide] is higher in inhibition at 50 µM: 30.2% for the first, 44.4% for the second.

Going from `CSc1ccc(-c2nc3cnccn3c2Nc2cccc(C(=O)NC(C)C)c2)cc1` [P22417, 3-[[2-(4-methyl-sulfanylphenyl)imidazo [1,2-a]pyrazin-3-yl]amino]-N-propan-2-ylbenzamide] to `CNC(=O)c1cccc(Nc2c(-c3ccc(SC)cc3)nc3cnccn23)c1` [P22436, N-methyl-3-[[2-(4-methylsulfanylphenyl)imidazo[1,2-a]pyrazin-3-yl]amino] benzamide], the inhibition at 50 µM falls from 43.4% to 31.3%.

Going from `CSc1ccc(-c2nc3cnccn3c2Nc2cccc(C(=O)NCC3CCCO3)c2)cc1` (centres unmarked) [P22418, 3-[[2-(4-methyl-sulfanylphenyl)imidazo [1,2-a]pyrazin-3-yl]amino]-N-(oxolan-2-ylmethyl)benzamide] to `CCNC(=O)c1cccc(Nc2c(-c3ccc(SC)cc3)nc3cnccn23)c1` [P22466, N-ethyl-3-[[2-(4-methylsulfanylphenyl)imidazo[1,2-a]pyrazin-3-yl]amino] benzamide], the inhibition at 50 µM falls from 34.5% to 22.2%.

Compared with `COc1ccc(-c2nc3cnccn3c2Nc2ccc(C(=O)NC(C)C)cc2)cc1OC` [P22420, 4-[[2-(3,4-dimethoxy-phenyl)imidazo[1,2-a]pyrazin-3-yl]amino]-N-propan-2-ylbenzamide], `COc1ccc(-c2nc3cnccn3c2Nc2ccc(C(=O)NC(C)C)cc2)cc1` [P22432, 4-[[2-(4-methoxy-phenyl)imidazo[1,2-a]pyrazin-3-yl]amino]-N-propan-2-ylbenzamide] is lower in inhibition at 50 µM: 43.9% for the first, 42.2% for the second.

First: CSc1ccc(-c2nc3cnccn3c2Nc2ccc(C(=O)N3CCOCC3)cc2)cc1 [P22425, [4-[[2-(4-methyl-sulfanylphenyl)imidazo [1,2-a]pyrazin-3-yl]amino]phenyl]-morpholin-4-ylmethanone]
Second: CSc1ccc(-c2nc3cnccn3c2Nc2cccc(C(=O)N3CCOCC3)c2)cc1 [P22439, [3-[[2-(4-methyl-sulfanylphenyl)imidazo [1,2-a]pyrazin-3-yl]amino]phenyl]-morpholin-4-ylmethanone]
The inhibition at 50 µM of the first is higher: 40.7% for the first, 23.2% for the second.

Compared with `O=C(NCCN1CCOCC1)c1cccc(Nc2c(-c3ccccc3)nc3cnccn23)c1` [P22427, N-[2-(1,4-oxazinan-4-yl)ethyl]-3-[(2-phenylimidazo[1,2-a]pyrazin-3-yl)amino] benzamide], `COc1ccc(-c2nc3cnccn3c2Nc2cccc(C(=O)NCCN3CCOCC3)c2)cc1` [P22437, 3-[[2-(4-methoxy-phenyl)imidazo[1,2-a]pyrazin-3-yl]amino]-N-(2-morpholin-4-ylethyl)benzamide] is higher in inhibition at 50 µM: 22.8% for the first, 24.2% for the second.

Going from `O=C(c1cccc(Nc2c(-c3ccc(Cl)cc3)nc3cnccn23)c1)N1CCOCC1` [P22429, [3-[[2-(4-chlorophenyl)imidazo[1,2-a]pyrazin-3-yl]amino]phenyl]-morpholin-4-ylmethanone] to `CCNC(=O)c1cccc(Nc2c(-c3ccc(Cl)cc3)nc3cnccn23)c1` [P22456, 3-[[2-(4-chlorophenyl)imidazo[1,2-a]pyrazin-3-yl]amino]-N-ethylbenzamide], the inhibition at 50 µM rises from 24.7% to 30.3%.

Going from `CN(C)CCNC(=O)c1ccc(Nc2c(-c3ccccc3)nc3cnccn23)cc1` [P22433, N-[2-(dimethylamino)ethyl]-4-[(2-phenyl-imidazo[1,2-a]pyrazin-3-yl)amino] benzamide] to `CCNC(=O)c1ccc(Nc2c(-c3ccccc3)nc3cnccn23)cc1` [P22461, N-ethyl-4-[(2-phenyl-imidazo[1,2-a]pyrazin-3-yl)amino] benzamide], the inhibition at 50 µM rises from 30.5% to 32.3%.

Going from `Cc1ccc(-c2nc3cnccn3c2Nc2ccc(C(=O)NC3CCCCC3)cc2)cc1` [P22434, N-cyclohexyl-4-[[2-(4-methylphenyl)imidazo[1,2-a]pyrazin-3-yl]amino]benzamide] to `COc1ccc(-c2nc3cnccn3c2Nc2ccc(C(=O)NC3CCCCC3)cc2)cc1OC` [P22450, N-cyclohexyl-4-[[2-(3,4-dimethoxyphenyl)imidazo[1,2-a]pyrazin-3-yl]amino] benzamide], the inhibition at 50 µM falls from 41.1% to 20.8%.

First: O=C(NCc1ccco1)c1ccc(Nc2c(-c3ccccc3)nc3cnccn23)cc1 [P22435, N-(furan-2-ylmethyl)-4-[(2-phenylimidazo [1,2-a]pyrazin-3-yl)amino]benzamide]
Second: O=C(NCc1ccco1)c1cccc(Nc2c(-c3ccccc3)nc3cnccn23)c1 [P22449, N-(furan-2-ylmethyl)-3-[(2-phenylimidazo [1,2-a]pyrazin-3-yl)amino]benzamide]
The inhibition at 50 µM of the first is lower: 23.9% for the first, 27.5% for the second.

Compared with `COc1ccc(-c2nc3cnccn3c2Nc2ccc(C(=O)NCC3CCCO3)cc2)cc1OC` (centres unmarked) [P22440, 4-[[2-(3,4-dimethoxy-phenyl)imidazo[1,2-a]pyrazin-3-yl]amino]-N-(oxolan-2-ylmethyl)benzamide], `O=C(NCC1CCCO1)c1ccc(Nc2c(-c3ccccc3)nc3cnccn23)cc1` (centres unmarked) [P22463, N-(oxolan-2-ylmethyl)-4-[(2-phenylimidazo [1,2-a]pyrazin-3-yl)amino]benzamide] is lower in inhibition at 50 µM: 33.5% for the first, 25.8% for the second.

First: CC(C)NC(=O)c1ccc(Nc2c(-c3ccc(Cl)cc3)nc3cnccn23)cc1 [P22442, 4-[[2-(4-chlorophenyl)imidazo[1,2-a]pyrazin-3-yl]amino]-N-propan-2-ylbenzamide]
Second: Cc1ccc(-c2nc3cnccn3c2Nc2ccc(C(=O)NC(C)C)cc2)cc1 [P22452, 4-[[2-(4-methylphenyl)imidazo[1,2-a]pyrazin-3-yl]amino]-N-propan-2-ylbenzamide]
The inhibition at 50 µM of the first is higher: 37.1% for the first, 33.6% for the second.

Compared with `COc1ccc(-c2nc3cnccn3c2Nc2ccc(C(=O)NCCN(C)C)cc2)cc1` [P22443, N-[2-(dimethylamino)ethyl]-4-[[2-(4-methoxyphenyl)imidazo[1,2-a]pyrazin-3-yl]amino]benzamide], `CN(C)CCNC(=O)c1cccc(Nc2c(-c3ccc(Cl)cc3)nc3cnccn23)c1` [P22457, 3-[[2-(4-chlorophenyl)imidazo[1,2-a]pyrazin-3-yl]amino]-N-[2-(dimethylamino)ethyl]benzamide] is lower in inhibition at 50 µM: 41.2% for the first, 38.6% for the second.

Compared with `O=C(c1ccc(Nc2c(-c3ccccc3)nc3cnccn23)cc1)N1CCCCC1` [P22444, [4-[(2-phenylimidazo [1,2-a]pyrazin-3-yl)amino]phenyl]-piperidin-1-ylmethanone], `O=C(c1cccc(Nc2c(-c3ccccc3)nc3cnccn23)c1)N1CCCCC1` [P22458, [3-[(2-phenylimidazo [1,2-a]pyrazin-3-yl)amino]phenyl]-piperidin-1-ylmethanone] is lower in inhibition at 50 µM: 43.9% for the first, 35.5% for the second.

First: CSc1ccc(-c2nc3cnccn3c2Nc2cccc(C(=O)NC3CCCCC3)c2)cc1 [P22448, N-cyclohexyl-3-[[2-(4-methylsulfanyl-phenyl)imidazo[1,2-a]pyrazin-3-yl]amino] benzamide]
Second: CSc1ccc(-c2nc3cnccn3c2Nc2ccc(C(=O)NC(C)C)cc2)cc1 [P22462, 4-[[2-(4-methyl-sulfanylphenyl)imidazo [1,2-a]pyrazin-3-yl]amino]-N-propan-2-ylbenzamide]
The inhibition at 50 µM of the first is lower: 26.9% for the first, 40.7% for the second.

Going from `CNC(=O)c1ccc(Nc2c(-c3ccccc3)nc3cnccn23)cc1` [P22451, N-methyl-4-[(2-phenyl-imidazo[1,2-a]pyrazin-3-yl)amino] benzamide] to `Cc1ccc(-c2nc3cnccn3c2Nc2ccc(C(=O)NCc3ccco3)cc2)cc1` [P22455, N-(furan-2-ylmethyl)-4-[[2-(4-methyl-phenyl)imidazo[1,2-a]pyrazin-3-yl]amino] benzamide], the inhibition at 50 µM rises from 34.7% to 40.1%.

First: COc1ccc(-c2nc3cnccn3c2Nc2ccc(C(=O)N3CCCCC3)cc2)cc1 [P22454, [4-[[2-(4-methoxy-phenyl)imidazo[1,2-a]pyrazin-3-yl]amino]phenyl]-piperidin-1-ylmethanone]
Second: Cc1ccc(-c2nc3cnccn3c2Nc2ccc(C(=O)N3CCCCC3)cc2)cc1 [P22464, [4-[[2-(4-methyl-phenyl)imidazo[1,2-a]pyrazin-3-yl]amino]phenyl]-piperidin-1-ylmethanone]
The inhibition at 50 µM of the first is higher: 31.8% for the first, 29.6% for the second.

Going from `COc1ccc(-c2nc3cnccn3c2Nc2cccc(C(=O)NCc3ccco3)c2)cc1` [P22459, N-(furan-2-ylmethyl)-3-[[2-(4-methoxy-phenyl)imidazo[1,2-a]pyrazin-3-yl]amino]benzamide] to `CSc1ccc(-c2nc3cnccn3c2Nc2ccc(C(=O)NCc3ccco3)cc2)cc1` [P22465, N-(furan-2-ylmethyl)-4-[[2-(4-methyl-sulfanylphenyl)imidazo [1,2-a]pyrazin-3-yl]amino]benzamide], the inhibition at 50 µM falls from 35.4% to 29.6%.

Compound `COc1ccc(-c2nc3cnccn3c2Nc2ccc(C(=O)N3CCCCC3)cc2)cc1OC` [P22460, [4-[[2-(3,4-dimethoxy-phenyl)imidazo[1,2-a]pyrazin-3-yl]amino]phenyl]-piperidin-1-ylmethanone] has an inhibition at 50 µM of 31.8%.
